Legend:
CDK9 = biological target: T1, CDK9 (Homo sapiens, UniProt P50750); test: CDK protein degradation activity (Western blotting), CDK9; type: cell-based; conditions: MDA-MB-231 cells, 16 hours, Western blot
T1 construct: endogenous in cells; host or cells: MDA-MB-231
Summary of the method: (§1)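 Protein levels were read by Western blot densitometry, tubulin serving as loading reference. Beforehand, MDA-MB-231 cells had been exposed for 16 hours to 100 nM, 1 μM or 10 μM compound, DMSO as control.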

CDK2 = biological target: T2, CDK2 (Homo sapiens, UniProt P24941); test: CDK protein degradation activity (Western blotting), CDK2; type: cell-based; conditions: MDA-MB-231 cells, 16 hours, Western blot
T2 construct: endogenous in cells; host or cells: MDA-MB-231
Summary of the method: as §1

T1 sequence (P50750 whole entry): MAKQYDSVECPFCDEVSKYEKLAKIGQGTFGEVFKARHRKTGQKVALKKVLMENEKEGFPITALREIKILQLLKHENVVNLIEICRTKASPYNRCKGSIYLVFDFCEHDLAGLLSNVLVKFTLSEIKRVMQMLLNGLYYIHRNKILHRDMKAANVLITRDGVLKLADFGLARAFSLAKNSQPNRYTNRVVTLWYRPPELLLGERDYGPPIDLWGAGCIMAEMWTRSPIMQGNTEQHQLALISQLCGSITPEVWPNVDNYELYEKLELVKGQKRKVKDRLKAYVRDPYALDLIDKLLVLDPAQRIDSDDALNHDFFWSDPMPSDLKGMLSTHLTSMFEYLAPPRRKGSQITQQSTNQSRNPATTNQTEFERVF

Row | SMILES | Enzyme degradation CDK9 (% remaining) @ 0.1 μM (CDK9) | Enzyme degradation CDK9 (% remaining) @ 1 μM (CDK9) | Enzyme degradation CDK9 (% remaining) @ 10 μM (CDK9) | Enzyme degradation CDK2 (% remaining) @ 0.1 μM (CDK2) | Enzyme degradation CDK2 (% remaining) @ 1 μM (CDK2) | Enzyme degradation CDK2 (% remaining) @ 10 μM (CDK2)
1 | O=C1CC[C@H](N2C(=O)c3cccc(N4CCC(CCCN5CCN(c6ccc(Nc7ncnc8c7ncn8[C@H]7C[C@@H](NC(=O)Cc8ccccc8)C7)cc6)CC5)CC4)c3C2=O)C(=O)N1 [Compound 261, N-((1s,3s)-3-(6-((4-(4-(3-(1-(2-(2,6-dioxopiperidin-3-yl)-1,3-dioxoisoindolin-4-yl)piperidin-4-yl)propyl)piperazin-1-yl)phenyl)amino)-9H-purin-9-yl)cyclobutyl)-2-phenylacetamide] | 60% | 30% | 20% | 70% | 90% | 100%
2 | O=C1CC[C@H](N2C(=O)c3ccc(N4CCC(CCCN5CCN(c6ccc(Nc7ncnc8c7ncn8C7CC(NC(=O)Cc8ccccc8)C7)cc6)CC5)CC4)cc3C2=O)C(=O)N1 (stereo partly drawn) [Compound 262, N-((1s,3s)-3-(6-((4-(4-(3-(1-(2-(2,6-dioxopiperidin-3-yl)-1,3-dioxoisoindolin-5-yl)piperidin-4-yl)propyl)piperazin-1-yl)phenyl)amino)-9H-purin-9-yl)cyclobutyl)-2-phenylacetamide] | 40% | 30% | 10% | 70% | 90% | 100%
3 | O=C1CC[C@H](N2C(=O)c3cccc(NCC(=O)N4CCC5(CC(N6CCN(c7ccc(Nc8ncnc9c8ncn9C8CC(NC(=O)Cc9ccccc9)C8)cc7)CC6)C5)C4)c3C2=O)C(=O)N1 (stereo partly drawn) [Compound 263, N-((1s,3s)-3-(6-((4-(4-(6-((2-(2,6-dioxopiperidin-3-yl)-1,3-dioxoisoindolin-4-yl)glycyl)-6-azaspiro[3.4]octan-2-yl)piperazin-1-yl)phenyl)amino)-9H-purin-9-yl)cyclobutyl)-2-phenylacetamide] | 20% | 0% | 0% | 50% | 40% | 40%
4 | O=C1CC[C@H](N2C(=O)c3cccc(OCC(=O)N4CCC5(CC(N6CCN(c7ccc(Nc8ncnc9c8ncn9[C@H]8C[C@@H](NC(=O)Cc9ccccc9)C8)cc7)CC6)C5)C4)c3C2=O)C(=O)N1 (stereo partly drawn) [Compound 264, N-((1s,3s)-3-(6-((4-(4-(6-(2-((2-(2,6-dioxopiperidin-3-yl)-1,3-dioxoisoindolin-4-yl)oxy)acetyl)-6-azaspiro[3.4]octan-2-yl)piperazin-1-yl)phenyl)amino)-9H-purin-9-yl)cyclobutyl)-2-phenylacetamide] | 90% | 40% | 0% | 50% | 20% | 10%
5 | O=C1CC[C@H](N2C(=O)c3ccc(NCC(=O)N4CCC5(CC(N6CCN(c7ccc(Nc8ncnc9c8ncn9[C@H]8C[C@@H](NC(=O)Cc9ccccc9)C8)cc7)CC6)C5)C4)cc3C2=O)C(=O)N1 (stereo partly drawn) [Compound 265, N-((1s,3s)-3-(6-((4-(4-(6-((2-(2,6-dioxopiperidin-3-yl)-1,3-dioxoisoindolin-5-yl)glycyl)-6-azaspiro[3.4]octan-2-yl)piperazin-1-yl)phenyl)amino)-9H-purin-9-yl)cyclobutyl)-2-phenylacetamide] | 10% | 0% | 0% | 90% | 70% | 70%
6 | O=C1CC[C@@H](c2ccc(OCC(=O)N3CCC4(CC(N5CCN(c6ccc(Nc7ncnc8c7ncn8C7CC(NC(=O)Cc8ccccc8)C7)cc6)CC5)C4)C3)cc2)C(=O)N1 (stereo partly drawn) [Compound 268, N-((1s,3s)-3-(6-((4-(4-(6-(2-(4-(2,6-dioxopiperidin-3-yl)phenoxy)acetyl)-6-azaspiro[3.4]octan-2-yl)piperazin-1-yl)phenyl)amino)-9H-purin-9-yl)cyclobutyl)-2-phenylacetamide] | 70% | 0% | 0% | 70% | 50% | 20%

Next, values leading:

Row | Enzyme degradation CDK9 (% remaining) @ 0.1 μM (CDK9) | Enzyme degradation CDK9 (% remaining) @ 1 μM (CDK9) | Enzyme degradation CDK9 (% remaining) @ 10 μM (CDK9) | Enzyme degradation CDK2 (% remaining) @ 0.1 μM (CDK2) | Enzyme degradation CDK2 (% remaining) @ 1 μM (CDK2) | Enzyme degradation CDK2 (% remaining) @ 10 μM (CDK2) | SMILES
7 | 30% | 10% | 10% | 10/10/10% | 10/10/10% | 10/10/10% | O=C1CCC(c2cccc(OCC(=O)N3CCC4(CC(N5CCN(c6ccc(Nc7ncnc8c7ncn8[C@H]7C[C@@H](NC(=O)Cc8ccccc8)C7)cc6)CC5)C4)C3)c2)C(=O)N1 (stereo partly drawn) [Compound 269, N-((1s,3s)-3-(6-((4-(4-(6-(2-(3-(2,6-dioxopiperidin-3-yl)phenoxy)acetyl)-6-azaspiro[3.4]octan-2-yl)piperazin-1-yl)phenyl)amino)-9H-purin-9-yl)cyclobutyl)-2-phenylacetamide]
8 | 40% | 30% | 30% | 40% | 30% | 30% | O=C1CC[C@H](N2C(=O)c3cccc(N4CC(N5CCC6(CC5)CC(N5CCN(c7ccc(Nc8ncnc9c8ncn9[C@H]8C[C@@H](NC(=O)Cc9ccccc9)C8)cc7)CC5)C6)C4)c3C2=O)C(=O)N1 [Compound 270, N-((1s,3s)-3-(6-((4-(4-(7-(1-(2-(2,6-dioxopiperidin-3-yl)-1,3-dioxoisoindolin-4-yl)azetidin-3-yl)-7-azaspiro[3.5]nonan-2-yl)piperazin-1-yl)phenyl)amino)-9H-purin-9-yl)cyclobutyl)-2-phenylacetamide]
9 | 20% | 10% | 10% | 30% | 40% | 40% | O=C1CC[C@H](N2C(=O)c3ccc(N4CC(N5CCC6(CC5)CC(N5CCN(c7ccc(Nc8ncnc9c8ncn9C8CC(NC(=O)Cc9ccccc9)C8)cc7)CC5)C6)C4)cc3C2=O)C(=O)N1 (stereo partly drawn) [Compound 271, N-((1s,3s)-3-(6-((4-(4-(7-(1-(2-(2,6-dioxopiperidin-3-yl)-1,3-dioxoisoindolin-5-yl)azetidin-3-yl)-7-azaspiro[3.5]nonan-2-yl)piperazin-1-yl)phenyl)amino)-9H-purin-9-yl)cyclobutyl)-2-phenylacetamide]
10 | 30% | 20% | 20% | 40/40/40% | 40/40/40% | 40/40/40% | COc1ccc(C(=O)N2CC(N3CCC4(CC3)CC(N3CCN(c5ccc(Nc6ncnc7c6ncn7[C@H]6C[C@@H](NC(=O)Cc7ccccc7)C6)cc5)CC3)C4)C2)cc1N1CCC(=O)NC1=O [Compound 272, N-((1s,3s)-3-(6-((4-(4-(7-(1-(3-(2,4-dioxotetrahydropyrimidin-1(2H)-yl)-4-methoxybenzoyl)azetidin-3-yl)-7-azaspiro[3.5]nonan-2-yl)piperazin-1-yl)phenyl)amino)-9H-purin-9-yl)cyclobutyl)-2-phenylacetamide]
11 | 20% | 10% | 10% | 100% | 70% | 50% | O=C1CC[C@@H](c2ccc(OCC(=O)N3CC(N4CCC5(CC4)CC(N4CCN(c6ccc(Nc7ncnc8c7ncn8[C@H]7C[C@@H](NC(=O)Cc8ccccc8)C7)cc6)CC4)C5)C3)cc2)C(=O)N1 [Compound 273, N-((1s,3s)-3-(6-((4-(4-(7-(1-(2-(4-(2,6-dioxopiperidin-3-yl)phenoxy)acetyl)azetidin-3-yl)-7-azaspiro[3.5]nonan-2-yl)piperazin-1-yl)phenyl)amino)-9H-purin-9-yl)cyclobutyl)-2-phenylacetamide]
12 | 30/30/30% | 30/30/30% | 30/30/30% | 30% | 20% | 20% | O=C1CC[C@@H](c2cccc(OCC(=O)N3CC(N4CCC5(CC4)CC(N4CCN(c6ccc(Nc7ncnc8c7ncn8[C@H]7C[C@@H](NC(=O)Cc8ccccc8)C7)cc6)CC4)C5)C3)c2)C(=O)N1 [Compound 274, N-((1s,3s)-3-(6-((4-(4-(7-(1-(2-(3-(2,6-dioxopiperidin-3-yl)phenoxy)acetyl)azetidin-3-yl)-7-azaspiro[3.5]nonan-2-yl)piperazin-1-yl)phenyl)amino)-9H-purin-9-yl)cyclobutyl)-2-phenylacetamide]
13 | 70% | 30% | 0% | 80% | 60% | 60% | O=C1CCC(c2ccc(OCC(=O)N3CC(CN4CCC5(CC4)CC(N4CCN(c6ccc(Nc7ncnc8c7ncn8[C@H]7C[C@@H](NC(=O)Cc8ccccc8)C7)cc6)CC4)C5)C3)cc2)C(=O)N1 (stereo partly drawn) [Compound 275, N-((1s,3s)-3-(6-((4-(4-(7-((1-(2-(4-(2,6-dioxopiperidin-3-yl)phenoxy)acetyl)azetidin-3-yl)methyl)-7-azaspiro[3.5]nonan-2-yl)piperazin-1-yl)phenyl)amino)-9H-purin-9-yl)cyclobutyl)-2-phenylacetamide]

— patent US20260125382A1, “COMPOUNDS FOR INHIBITING OR DEGRADING CDK2 AND/OR CDK9 AND MEDICINAL USE THEREOF” (KOREA RESEARCH INSTITUTE OF CHEMICAL TECHNOLOGY, priority 2022, published 2026)
